Values of other authors in patent US20220409628A1, “18-MC FOR TREATING OBESITY” (Mind Medicine, Inc., priority 2021, published 2022).

What was measured:
[1] = U.S. Pat. No. 6,780,871 to Glick, et al.
rats [2] = conditions: acute administration, 10-40 mg/kg i.p.
rats [3] = conditions: acute administration
rats [4] = conditions: unlimited access to sucrose (30%), chronic treatment 20 mg/kg i.p.
[5] = in vivo
female rats = conditions: pretreatment 20 mg/kg i.p., ghrelin 1 μg lateral ventricle
[6] = test system: extracellular dopamine in the nucleus accumbens; conditions: both 20 and 40 mg/kg, ghrelin 2 μg intraventral tegmental area
male rats = conditions: repeated administration 20 mg/kg i.p.

## COCC[C@H]1CC2CN3CCc4c([nH]c5ccccc45)[C@](C(=O)OC)(C2)[C@H]13 [18-MC, 18-methoxycoronaridine]
[1]
  self-administration of morphine, cocaine, methamphetamine, nicotine, and sucrose: reducing self-administration
Rats [2]
  operant responding for sucrose: reduced operant responding for sucrose
Rats [3]; 10-40 mg/kg i.p.
  ad libitum ingestion of sucrose, saccharin, and saline: decreased ad libitum ingestion
Rats [3]; highest dose
  consumption of water when palatable fluids were not available: reduced consumption of water
Rats [4]
  consumption of sucrose: reduced consumption of sucrose
  fat deposition: decreased fat deposition
  food intake: not altering food intake
  sucrose-induced increases in body weight: prevented sucrose-induced increases in body weight
[5]
  conditioned taste aversion to sucrose: does not induce
Female rats
  ghrelin-induced increases in sucrose (5%) intake: blocked ghrelin-induced increases
[6]
  ghrelin-induced increases in extracellular dopamine in the nucleus accumbens: prevented
ghrelin-treated rats
  deposition of fat: no effect
  serum levels of glucose, triglycerides, and cholesterol: no effect
Male rats; both sucrose-consuming and control animals
  weight gain: attenuated weight gain
Male rats
  food or fluid intake: without altering food or fluid intake
